{
  "source": "patent US6407058B1",
  "about": "“Modifying the permeability of physiological barriers” (Eisai Co., Limited, priority 1996, dated 2002)",
  "type_in_all_cases": "cell-based",
  "key": {"[1]": {"tested_on": "p100/p120", "assay": "p100/p120 electrophoretic mobility, human umbilical vein endothelial cells (HUVECs)", "settings": "HUVEC, 5 minutes; histamine 10 μM, PDB 200 nM"}, "[2]": {"tested_on": "p100/p120", "assay": "p100/p120 electrophoretic mobility, human umbilical vein endothelial cells (HUVECs)", "settings": "HUVECs, 200 nM PDB, 30 minutes", "method": "Cells were treated with or without 200 nM PDB for 30 minutes, lysed into Laemmli sample buffer, separated by electrophoresis and analysed by immunoblotting with antibodies recognising p100 and p120.\nHuman umbilical vein endothelial cells were incubated with histamine (His), pyrilamine (Pyr) or cimetidine (Cim) alone or in combination. As indicated, cells were preincubated in the absence or presence of cimetidine (10 μM) or pyrilamine (10 μM) for 10 minutes and then treated with or without histamine (10 μM) for a further 10 minutes. The cells were extracted and protein analysed by gel electrophoresis and immunoblotting. […] In the following examples, increase mobility of p100/p120 means decreased phosphorylation.\nWhole cell lysates were prepared by rapidly replacing the culture medium in 6.5 mm with hot Laemmli sample buffer, followed by heating at 100° C. for 5 minutes. Immunoprecipitations were carried out at 4° C. Confluent monolayers of cells were washed rapidly with ice cold PBS (containing 0.9 mM CaCl2 and 0.5 mM MgCl2) before addition of 0.5 ml of the appropriate buffer. The filters were then gently scraped, and the lysate was removed and centrifuged at 14000× g. The supernatant was precleared with 10% (w/v) protein A-Sepharose in lysis buffer for 30-60 minutes. Appropriate primary antibodies were added to the lysate, and after 2-3 hours the immunecomplex was isolated, using rabbit anti-mouse secondary antibodies (Jackson Immunoresearch Labs Inc., West Grove, Pa.) and protein A-Sepharose. The beads were washed fives times with lysis buffer, and the bound protein was solubilized in SDS-sample buffer, followed by heating at 100° C. for 5 minutes.\n(§1) Cell extracts or immunoprecipitates in SDS sample buffer were resolved by SDS-PAGE. The slab gels were then equilibrated in buffer comprising; 48 mM Tris, 39 mM glycine, 20% methanol and 0.03% SDS. Proteins were transferred to nitrocellulose filters (Hybond ECL; Amersham), which were Ponceau S stained and then blocked for 2 hours at 37° C. with 1% BSA in PBS containing 0.05% Tween-20. Filters were then probed with p120 antibody, at a dilution of 1:2500. After washing, filters were incubated with horseradish peroxidase conjugated anti-mouse antibody (Amersham), at a dilution of 1:5000. The filters were then extensively washed in PBS/0.5% Tween-20, and immunoreactive bands were detected by enhanced chemiluminescence (Amersham) following the manufacturers instructions."}, "[3]": {"tested_on": "p100/p120", "assay": "[32P]orthophosphate labelling and immunoprecipitation of p100/p120, MDCK I cells", "method": "PDB induces dephosphorylation of p100 and p120. We investigated the possibility that the altered pattern of migration during electrophoresis of p100 and p120 following treatment with PDB is due to a change in the phosphorylation state of these proteins. MDCK I cells were metabolically labelled with [^32P]orthophosphate, treated with or without 200 nM PDB, and the p100 and p120 isolated by immunoprecipitation with antibodies recognising p100 and p120. This immunoprecipitation was carried out under buffer conditions which removed any associated proteins from p100 and p120. Protein was separated by electrophoresis, transferred to nitrocellulose filters, and exposed to film (Example 6A). The greater the amount of radioactive phosphate incorporated into the protein, the greater the signal on the film. […] To normalise for slight differences in protein loading, the same filters were then probed with p100/p120 antibody, and the level of p100/p120 protein determined by densitometry. Thus, the amount of phosphate per unit protein could be calculated. […]\nMDCK I cells grown to confluence on 24 mm filters were incubated overnight in phosphate-free MEM, containing 0.5% serum (dialysed against 0.9% NaCl and 10 mM Hepes (pH 7.5)) and 100 μCi/ml [^32P]orthophosphate (Amersham). […] Filters were then probed with p120 antibodies, and the resulting ECL exposure scanned in the same way, to quantify protein loading."}, "[4]": {"tested_on": "p100/p120", "assay": "p100/p120 electrophoretic mobility, bovine aortic endothelial cells (BAECs)", "settings": "200 nM PDB, 30 minutes", "method": "The mobility of p100 and p120 during electrophoresis is also altered by PDB-treatment in endothelial cells. The p100/p120 proteins from human umbilical vein endothelial cells (HUVECs), bovine aortic endothelial cells (BAECs) and primary pig brain endothelial cells (PBECs) were all affected by PDB-treatment. Cells were treated with or without 200 nM PDB for 30 minutes, lysed into Laemmli sample buffer, separated by electrophoresis and analysed by immunoblotting with antibodies recognising p100 and p120. […] Thus the effect of PKC activation (via PDB) on p100/p120 mobility is a widespread phenomenon.\nWhole cell lysates were prepared by rapidly replacing the culture medium in 6.5 mm with hot Laemmli sample buffer, followed by heating at 100° C. for 5 minutes. Immunoprecipitations were carried out at 4° C. Confluent monolayers of cells were washed rapidly with ice cold PBS (containing 0.9 mM CaCl2 and 0.5 mM MgCl2) before addition of 0.5 ml of the appropriate buffer. The filters were then gently scraped, and the lysate was removed and centrifuged at 14000× g. […]\nCell extracts or immunoprecipitates in SDS sample buffer were resolved by SDS-PAGE. […] The filters were then extensively washed in PBS/0.5% Tween-20, and immunoreactive bands were detected by enhanced chemiluminescence (Amersham) following the manufacturers instructions."}, "[5]": {"tested_on": "paxillin", "assay": "paxillin electrophoretic mobility by immunoblotting, MDCK I cells", "settings": "200 nM PDB, 30 minutes", "method": "(§2) The migration of the cellular proteins p100 and p120 during electrophoresis is increased following PDB-treatment of MDCK I cells. PDB (phorbol-12,13-dibutyrate) is a pharmacological activator of protein kinase C. MDCK I cells are a kidney derived epithelial cell line, with particularly well developed junctional complexes. Cells treated for 30 minutes with either 200 nM PDB (+) or vehicle (−) were then lysed into Laemmli sample buffer, and separated by electrophoresis using 6% acrylamide gels. Proteins were transferred to nitrocellulose and probed with antibodies to p100/p120, and then reprobed with E-cadherin and paxillin antibodies.\nas §1, with “After washing, filters were incubated with horseradish peroxidase conjugated anti-mouse antibody (Amersham), at a dilution of 1:5000.” left out"}, "[6]": {"tested_on": "E-cadherin", "assay": "E-cadherin electrophoretic mobility by immunoblotting, MDCK I cells", "settings": "200 nM PDB, 30 minutes", "method": "as §2\nas §1, with “After washing, filters were incubated with horseradish peroxidase conjugated anti-mouse antibody (Amersham), at a dilution of 1:5000.” left out"}},
  "data": [
    {"smiles": "CCCC(=O)O[C@@H]1[C@@H](C)[C@@]2(O)[C@@H](C=C(CO)C[C@]3(O)C(=O)C(C)=C[C@@H]23)[C@@H]2C(C)(C)[C@]12OC(=O)CCC", "note": "[PDB, Phorbol-12,13-dibutyrate]", "values": [
      {"measurement": "mobility of p120 and p100", "setting": "[1]", "result": "increased mobility"},
      {"measurement": "mobility of p100 and p120", "setting": "[2]", "result": "the mobility of p100 and p120 increased"},
      {"measurement": "phosphate content of p100/p120, of that in untreated cells (mean±s.d.)", "setting": "[3]; 200 nM PDB 30 minutes, seven independent sets of experiments", "result": "58±11", "unit": "%"},
      {"measurement": "phosphate in p100/p120 lost", "setting": "[3]; 200 nM PDB, single experiment (FIG. 7B), normalised for protein", "result": "approximately 40%"},
      {"measurement": "mobility of p100 and p120", "setting": "[4]", "result": "the mobility of p100 and p120 increased"},
      {"measurement": "effect on paxillin migration (phosphorylation)", "setting": "[5]", "result": "upward band shift"},
      {"measurement": "effect on E-cadherin migration", "setting": "[6]", "result": "no effect"}
    ]}
  ]
}
